The text below walks through data of ChEMBL document CHEMBL1133327, “4-Thiazolidinones: novel inhibitors of the bacterial enzyme MurB” (Bioorg Med Chem Lett, 2000).

Target in one experiment: not listed separately
Nature of the experiment: Compound was tested for in vitro inhibitory activity against the bacterial enzyme UDP-N-acetylmuramate dehydrogenase.
`CCCC[C@H](C(=O)O)N1C(=O)CSC1c1cccc(Oc2ccc(C(C)(C)C)cc2)c1` (stereo partly specified) had an IC50 of 7.7 µM.

For the compound `CCCC[C@@H](C(=O)O)N1C(=O)C(C)SC1c1cccc(Oc2ccc(C(C)(C)C)cc2)c1` (stereo partly specified), the IC50 is 14 µM.

`CCCC[C@@H](C(=O)O)N1C(=O)C(CC(=O)NNc2ccccc2)SC1c1cccc(Oc2ccc(C(C)(C)C)cc2)c1` (stereo partly specified): the IC50 is 11 µM.

Turning to `CCCC[C@@H](C(=O)O)N1C(=O)CSC1c1cccc(Oc2ccc(C(C)(C)C)cc2)c1` (stereo partly specified), the midpoint of inhibition, the IC50, lay at 28.4 µM.

`CCCC[C@H](C(=O)O)N1C(=O)C(CC(=O)NNc2ccccc2)SC1c1cccc(Oc2ccc(C(C)(C)C)cc2)c1` (stereo partly specified): the IC50 came to 7.7 µM. Compared with the last compound, the IC50 is about 3.7-fold lower.

`CCCC[C@H](C(=O)O)N1C(=O)C(C)SC1c1cccc(Oc2ccc(C(C)(C)C)cc2)c1` (single isomer, unassigned) registered a concentration for half-maximal inhibition (IC50) of 10 µM. This IC50 and that of the compound before are within 1.5-fold of each other.

A further experiment addresses T1, UDP-N-acetylenolpyruvoylglucosamine reductase (Escherichia coli K-12, UniProt P08373).
T1 sequence (P08373 whole entry): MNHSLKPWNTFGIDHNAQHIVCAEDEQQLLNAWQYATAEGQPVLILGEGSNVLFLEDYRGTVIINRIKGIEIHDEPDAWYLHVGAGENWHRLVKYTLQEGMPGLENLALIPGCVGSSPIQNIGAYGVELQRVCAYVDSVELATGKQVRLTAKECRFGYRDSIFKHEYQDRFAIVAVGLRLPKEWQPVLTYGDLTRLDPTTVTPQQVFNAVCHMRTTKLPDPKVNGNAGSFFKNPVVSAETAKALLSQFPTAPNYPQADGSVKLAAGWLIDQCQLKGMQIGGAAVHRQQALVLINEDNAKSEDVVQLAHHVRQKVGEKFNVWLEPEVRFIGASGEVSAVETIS
Nature of the experiment: Inhibition of bacterial enzyme UDP-N-acetylmuramate dehydrogenase.
With `CC1SC(c2cccc(Oc3ccc(C(C)(C)C)cc3)c2)N(CC(=O)O)C1=O` (stereo unspecified), the IC50 result was “Not Active”.

For `CC(C)(C)c1ccc(Oc2cccc(C3SC(CC(=O)NNc4ccccc4)C(=O)N3CC(=O)O)c2)cc1` (stereo unspecified), the IC50 entry is “Not Active”.

In the case of `CC(C)(C)c1ccc(Oc2cccc(C3SC(CC(=O)NNc4ccccc4)C(=O)N3[C@@H](CCCN)C(=O)O)c2)cc1` (stereo partly specified), the IC50 result is recorded as “Not Active”.

In the case of `CC(C)(C)c1ccc(Oc2cccc(C3SCC(=O)N3[C@@H](Cc3ccccc3)C(=O)O)c2)cc1` (stereo partly specified), the IC50 result is listed as “Not Active”.

As to `CC1SC(c2cccc(Oc3ccc(C(C)(C)C)cc3)c2)N([C@@H](CC(=O)O)C(=O)O)C1=O` (stereo partly specified), the IC50 entry is “Not Active”.

For the compound `CC(C)(C)c1ccc(Oc2cccc(C3SCC(=O)N3[C@@H](CC(=O)O)C(=O)O)c2)cc1` (stereo partly specified), the IC50 entry was “Not Active”.

For the compound `CC(C)(C)c1ccc(Oc2cccc(C3SCC(=O)N3[C@@H](CO)C(=O)O)c2)cc1` (stereo partly specified), the IC50 result is listed as “Not Active”.

For `CC(C)(C)c1ccc(Oc2cccc(C3SC(CC(=O)NNc4ccccc4)C(=O)N3[C@@H](CO)C(=O)O)c2)cc1` (stereo partly specified), the IC50 entry is listed as “Not Active”.

As to `CC1SC(c2cccc(Oc3ccc(C(C)(C)C)cc3)c2)N([C@@H](CO)C(=O)O)C1=O` (stereo partly specified), the IC50 entry is “Not Active”.

Regarding `CC(C)(C)c1ccc(Oc2cccc(C3SC(CC(=O)NNc4ccccc4)C(=O)N3[C@@H](CC(=O)O)C(=O)O)c2)cc1` (stereo partly specified), the IC50 entry is “Not Active”.

With `CC1SC(c2cccc(Oc3ccc(C(C)(C)C)cc3)c2)N([C@@H](Cc2ccccc2)C(=O)O)C1=O` (stereo partly specified), the IC50 result is reported as “Not Active”.

Regarding `CC(C)(C)c1ccc(Oc2cccc(C3SCC(=O)N3CC(=O)O)c2)cc1` (stereo unspecified), the IC50 result is on record as “Not Active”.

`CC1SC(c2cccc(Oc3ccc(C(C)(C)C)cc3)c2)N([C@@H](CCCN)C(=O)O)C1=O` (stereo partly specified): the IC50 result is “Not Active”.

As to `CC(C)(C)c1ccc(Oc2cccc(C3SC(CC(=O)NNc4ccccc4)C(=O)N3[C@@H](Cc3ccccc3)C(=O)O)c2)cc1` (stereo partly specified), the IC50 entry was “Not Active”.

Consider `CC(C)(C)c1ccc(Oc2cccc(C3SCC(=O)N3[C@@H](CCCN)C(=O)O)c2)cc1` (stereo partly specified), for which the IC50 entry is “Not Active”.
